Reference: patent US6468980B1, “Methods and compositions for potentiating cancer chemotherapeutic agents” (Oxycal Laboratories, Inc., priority 2000, dated 2002)

Tested on: SK-Hep-1, a liver adenocarcinoma (hepatoma) cells
Assay: BrdU cell proliferation ELISA, adriamycin plus ascorbate adjuvant, hepatoma cells
Assay type: cell-based, human
Conditions: for suppression of hepatoma proliferation, ADR plus adjuvant compared with ADR alone: adjuvant 0.5 mM AA equivalents, one application of ADR (0.003-0.3 micromolar), two applications of adjuvant, FIG. 1
Source text: Calcium ascorbate (CA), calcium threonate (CT), 4-hydroxy-5-methyl-3(2H)-furanone (FR) and Ester-C (EC) are obtained from Inter-Cal Corporation, Prescott, Ariz., USA. Tissue culture grade Ascorbic acid (AA) is from Sigma Chemical Company, St. Louis, Mo., USA. The composition of calcium ascorbate (calcium di-(L-ascorbate) dihydrate) is made by sequentially dissolving individual components in sterile water to obtain master-stock solutions of equal strength (1% w/v). Aqueous solution of calcium ascorbate plus calcium threonate plus 4-hydroxy-5-methyl-3(2H)-furanone (CA/CT/FR) is prepared at ratio of 85/7.5/7.5. For comparative analysis, stock solutions containing identical ascorbic acid (AA) equivalents are used. All master stocks are stored at room temperature during the course of these procedures. From these, 10× strength working stocks are prepared by serial dilution on the day of use and are applied to cells in microtiter plates as described below.
Adriamycin (doxorubicin) is obtained from Sigma Chemical Company (St. Louis, Mo.). Stock solutions are made by dissolving adriamycin (ADR) in sterile water and DTIC in water or dilute acetic acid solution (0.01N). Stocks are stored frozen at −10 C and thawed prior to use. Serial dilutions are made in sterile water to obtain 10× strength solutions and […] of this is applied to cells at the time of treatment.
Target human tumor-derived or normal lines consist of SK-Hep-1, a liver adenocarcinoma ([…]) and Malme-3M, a malignant melanoma. All seed cultures are obtained from ATCC, Mannassas, Va., USA and are propagated/maintained in serum-containing growth medium in a humidified incubator of 5% CO2/95% air. SH-Hep-1 cells are grown in Eagle's minimum essential medium (EMEM) in Earle's salts plus non-essential amino acids supplemented with 10% FBS plus antibiotics and Malme-3M cells are cultured in McCoy's medium supplemented with 15% fetal bovine serum (FBS) plus antibiotics.
For treatment, exponentially growing cells are seeded at a density of 1×10^4 cells per well of 96-well microtiter plate in 0.1-0.2 ml of growth medium. After overnight cell attachment at 37 C, duplicate wells are exposed to various treatments by direct application of one-tenth volume of 10× strength solution. For treatments involving chemotherapeutic agent, one-tenth volume of serial dilutions of adriamycin (0.0006-3.0 micromolar) are applied to wells followed by application of ascorbate-containing composition (adjuvant) or sterile water (control). The adjuvant treatment is repeated every other day or on the third day (as applicable) without change of growth medium. Untreated controls receive an equivalent amount of sterile water. After 2-3 treatments with adjuvant, cells are labeled with BudR as described below. (In some experiments, wells are refed an equal volume of growth medium prior to additional of BudR. This gives a higher amount of BrdU incorporation into DNA relative to no refluiding).
For DNA labeling, the following procedure are adapted and modified from the Cell Proliferation ELISA, BudR (Colorimetric) assay of Roche Diagnostics, Indianapolis, IN, USA: Each treated well is exposed to one-tenth volume of 10× BrdU-containing medium and reincubated and 37 C overnight (15-20 hrs.). One set of control wells is exposed to medium only (no BudR) to obtain an absorbance-control (substrate only) blank for the assay. After the labeling period, the culture medium is removed and the cells are fixed and DNA denatured in one step by adding FixDenat (30 min at RT). Then, FixDenat is removed, the anti-BrdU-peroxidase reagent is added and incubation continues for 90 min at RT. After removal of the latter, the plate is washed 3 times, followed by addition of substrate solution. The plate is kept at RT until color development became sufficient for photometric detection (5-10 min). […]

| Compound | suppression of hepatoma proliferation, ADR plus adjuvant compared with ADR alone (dihydrate) | suppression of hepatoma proliferation, ADR plus adjuvant compared with ADR alone (listed as Calcium Ascorbate (CA), dihydrate) | suppression of hepatoma proliferation, ADR plus adjuvant compared with ADR alone (listed as Calcium ascorbate, dihydrate) | effect of adjuvant on anti-proliferation activity of low doses of ADR in hepatoma cells (adjuvant at 0.033%, FIG. 4) | suppression of hepatoma proliferation, ADR plus adjuvant compared with ADR alone | suppression of hepatoma proliferation, ADR plus adjuvant compared with ADR alone (listed as Ascorbic Acid (AA)) |
| --- | --- | --- | --- | --- | --- | --- |
| calcium di-(L-ascorbate) dihydrate | greater suppression of hepatoma proliferation than ADR alone | greater suppression of hepatoma proliferation than doxorubicin alone | more effective than ascorbic acid | consistently improve the anti-proliferation activity of low doses of ADR | – | – |
| O=C1O[C@H]([C@@H](O)CO)C(O)=C1O [AA, Ascorbic acid, reference compound] | – | – | – | – | greater suppression of hepatoma proliferation than ADR alone | greater suppression of hepatoma proliferation than doxorubicin alone |
